Measured values reported in ChEMBL document CHEMBL4765227, “Hit to lead optimization of a series of N-[4-(1,3-benzothiazol-2-yl)phenyl]acetamides as monoacylglycerol lipase inhibitors with potential anticancer activity” (Eur J Med Chem, 2016).

Assays:
Type in all cases: functional
Conditions in all cases: read-out: GI
TK-10 = experiment: Growth inhibition of human TK-10 cells at 10 uM incubated for 48 hrs by sulforhodamine B assay relative to control
Malme-3M = experiment: Growth inhibition of human Malme-3M cells at 10 uM incubated for 48 hrs by sulforhodamine B assay relative to control
LOX IMVI = experiment: Growth inhibition of human LOX IMVI cells at 10 uM incubated for 48 hrs by sulforhodamine B assay relative to control
SN12C = experiment: Growth inhibition of human SN12C cells at 10 uM incubated for 48 hrs by sulforhodamine B assay relative to control
KM12 = experiment: Growth inhibition of human KM12 cells at 10 uM incubated for 48 hrs by sulforhodamine B assay relative to control
M14 = experiment: Growth inhibition of human M14 cells at 10 uM incubated for 48 hrs by sulforhodamine B assay relative to control
OVCAR-5 = experiment: Growth inhibition of human OVCAR-5 cells at 10 uM incubated for 48 hrs by sulforhodamine B assay relative to control
SF-539 = experiment: Growth inhibition of human SF-539 cells at 10 uM incubated for 48 hrs by sulforhodamine B assay relative to control
MOLT-4 = experiment: Growth inhibition of human MOLT-4 cells at 10 uM incubated for 48 hrs by sulforhodamine B assay relative to control
MDA-MB-435 = experiment: Growth inhibition of human MDA-MB-435 cells at 10 uM incubated for 48 hrs by sulforhodamine B assay relative to control
CCRF-CEM = experiment: Growth inhibition of human CCRF-CEM cells at 10 uM incubated for 48 hrs by sulforhodamine B assay relative to control
UO-31 = experiment: Growth inhibition of human UO-31 cells at 10 uM incubated for 48 hrs by sulforhodamine B assay relative to control
UACC-257 = experiment: Growth inhibition of human UACC-257 cells at 10 uM incubated for 48 hrs by sulforhodamine B assay relative to control
NCI/ADR-RES = experiment: Growth inhibition of human NCI/ADR-RES cells at 10 uM incubated for 48 hrs by sulforhodamine B assay relative to control
RXF 393 = experiment: Growth inhibition of human RXF 393 cells at 10 uM incubated for 48 hrs by sulforhodamine B assay relative to control
MCF7 = experiment: Growth inhibition of human MCF7 cells at 10 uM incubated for 48 hrs by sulforhodamine B assay relative to control
OVCAR-3 = experiment: Growth inhibition of human OVCAR-3 cells at 10 uM incubated for 48 hrs by sulforhodamine B assay relative to control
BT-549 = experiment: Growth inhibition of human BT-549 cells at 10 uM incubated for 48 hrs by sulforhodamine B assay relative to control
SK-MEL-28 = experiment: Growth inhibition of human SK-MEL-28 cells at 10 uM incubated for 48 hrs by sulforhodamine B assay relative to control
PC-3 = experiment: Growth inhibition of human PC-3 cells at 10 uM incubated for 48 hrs by sulforhodamine B assay relative to control
OVCAR-4 = experiment: Growth inhibition of human OVCAR-4 cells at 10 uM incubated for 48 hrs by sulforhodamine B assay relative to control
HCC 2998 = experiment: Growth inhibition of human HCC 2998 cells at 10 uM incubated for 48 hrs by sulforhodamine B assay relative to control
HOP-92 = experiment: Growth inhibition of human HOP-92 cells at 10 uM incubated for 48 hrs by sulforhodamine B assay relative to control
HCT-116 = experiment: Growth inhibition of human HCT-116 cells at 10 uM incubated for 48 hrs by sulforhodamine B assay relative to control
NCI-H522 = experiment: Growth inhibition of human NCI-H522 cells at 10 uM incubated for 48 hrs by sulforhodamine B assay relative to control
UACC-62 = experiment: Growth inhibition of human UACC-62 cells at 10 uM incubated for 48 hrs by sulforhodamine B assay relative to control
NCI-H226 = experiment: Growth inhibition of human NCI-H226 cells at 10 uM incubated for 48 hrs by sulforhodamine B assay relative to control
IGROV-1 = experiment: Growth inhibition of human IGROV-1 cells at 10 uM incubated for 48 hrs by sulforhodamine B assay relative to control
HT-29 = experiment: Growth inhibition of human HT-29 cells at 10 uM incubated for 48 hrs by sulforhodamine B assay relative to control
K562 = experiment: Growth inhibition of human K562 cells at 10 uM incubated for 48 hrs by sulforhodamine B assay relative to control
COLO 205 = experiment: Growth inhibition of human COLO 205 cells at 10 uM incubated for 48 hrs by sulforhodamine B assay relative to control
SF-268 = experiment: Growth inhibition of human SF-268 cells at 10 uM incubated for 48 hrs by sulforhodamine B assay relative to control
MDA-MB-468 = experiment: Growth inhibition of human MDA-MB-468 cells at 10 uM incubated for 48 hrs by sulforhodamine B assay relative to control
MDA-MB-231 = experiment: Growth inhibition of human MDA-MB-231 cells at 10 uM incubated for 48 hrs by sulforhodamine B assay relative to control
SNB-75 = experiment: Growth inhibition of human SNB-75 cells at 10 uM incubated for 48 hrs by sulforhodamine B assay relative to control
HCT-15 = experiment: Growth inhibition of human HCT-15 cells at 10 uM incubated for 48 hrs by sulforhodamine B assay relative to control
OVCAR-8 = experiment: Growth inhibition of human OVCAR-8 cells at 10 uM incubated for 48 hrs by sulforhodamine B assay relative to control
SNB-19 = experiment: Growth inhibition of human SNB-19 cells at 10 uM incubated for 48 hrs by sulforhodamine B assay relative to control
NCI-H23 = experiment: Growth inhibition of human NCI-H23 cells at 10 uM incubated for 48 hrs by sulforhodamine B assay relative to control
HL-60(TB) = experiment: Growth inhibition of human HL-60(TB) cells at 10 uM incubated for 48 hrs by sulforhodamine B assay relative to control
DU-145 = experiment: Growth inhibition of human DU-145 cells at 10 uM incubated for 48 hrs by sulforhodamine B assay relative to control
SK-MEL-5 = experiment: Growth inhibition of human SK-MEL-5 cells at 10 uM incubated for 48 hrs by sulforhodamine B assay relative to control
Hs-578T = experiment: Growth inhibition of human Hs-578T cells at 10 uM incubated for 48 hrs by sulforhodamine B assay relative to control
SF-295 = experiment: Growth inhibition of human SF-295 cells at 10 uM incubated for 48 hrs by sulforhodamine B assay relative to control

O=C(CNc1c(Cl)cccc1Cl)Nc1ccc(-c2nc3ccccc3s2)cc1
inhibition of growth at 10 µM (TK-10): -6.12%
inhibition of growth at 10 µM (Malme-3M): 150%
inhibition of growth at 10 µM (LOX IMVI): 149%
inhibition of growth at 10 µM (SN12C): 52%
inhibition of growth at 10 µM (KM12): 8.67%
inhibition of growth at 10 µM (M14): 44.3%
inhibition of growth at 10 µM (OVCAR-5): -10.4%
inhibition of growth at 10 µM (SF-539): 20.1%
inhibition of growth at 10 µM (MOLT-4): 94.4%
inhibition of growth at 10 µM (MDA-MB-435): 32.1%
inhibition of growth at 10 µM (CCRF-CEM): 97.8%
inhibition of growth at 10 µM (UO-31): 26.3%
inhibition of growth at 10 µM (UACC-257): 3.54%
inhibition of growth at 10 µM (NCI/ADR-RES): 36%
inhibition of growth at 10 µM (RXF 393): 13.4%
inhibition of growth at 10 µM (MCF7): 85.4%
inhibition of growth at 10 µM (OVCAR-3): 45.6%
inhibition of growth at 10 µM (BT-549): 78%
inhibition of growth at 10 µM (SK-MEL-28): -3.93%
inhibition of growth at 10 µM (PC-3): 14.1%
inhibition of growth at 10 µM (OVCAR-4): 82.5%
inhibition of growth at 10 µM (HCC 2998): 64.4%
inhibition of growth at 10 µM (HOP-92): 5.78%
inhibition of growth at 10 µM (HCT-116): 70.1%
inhibition of growth at 10 µM (NCI-H522): 193%
inhibition of growth at 10 µM (UACC-62): 64.9%
inhibition of growth at 10 µM (NCI-H226): 45.6%
inhibition of growth at 10 µM (IGROV-1): 50.7%
inhibition of growth at 10 µM (HT-29): 30.2%
inhibition of growth at 10 µM (K562): 89.5%
inhibition of growth at 10 µM (COLO 205): 12.3%
inhibition of growth at 10 µM (SF-268): 53.8%
inhibition of growth at 10 µM (MDA-MB-468): 107%
inhibition of growth at 10 µM (MDA-MB-231): 43.1%
inhibition of growth at 10 µM (SNB-75): 40.8%
inhibition of growth at 10 µM (HCT-15): 97.6%
inhibition of growth at 10 µM (OVCAR-8): 33.3%
inhibition of growth at 10 µM (SNB-19): 26.1%
inhibition of growth at 10 µM (NCI-H23): 59.1%
inhibition of growth at 10 µM (HL-60(TB)): 29.3%
inhibition of growth at 10 µM (DU-145): 14.3%
inhibition of growth at 10 µM (SK-MEL-5): 78.8%
inhibition of growth at 10 µM (Hs-578T): 12.8%
inhibition of growth at 10 µM (SF-295): 2.62%

Cc1ccc(NCC(=O)Nc2ccc(-c3nc4ccccc4s3)cc2)cc1
inhibition of growth at 10 µM (TK-10): -7.12%
inhibition of growth at 10 µM (Malme-3M): -21.5%
inhibition of growth at 10 µM (LOX IMVI): 22.8%
inhibition of growth at 10 µM (SN12C): 11.1%
inhibition of growth at 10 µM (KM12): 0.91%
inhibition of growth at 10 µM (M14): 3.66%
inhibition of growth at 10 µM (OVCAR-5): -6.57%
inhibition of growth at 10 µM (SF-539): 2.9%
inhibition of growth at 10 µM (MOLT-4): 41.9%
inhibition of growth at 10 µM (MDA-MB-435): -1.83%
inhibition of growth at 10 µM (CCRF-CEM): 60.1%
inhibition of growth at 10 µM (UO-31): 37.5%
inhibition of growth at 10 µM (UACC-257): 5.3%
inhibition of growth at 10 µM (NCI/ADR-RES): 2.16%
inhibition of growth at 10 µM (RXF 393): 10.7%
inhibition of growth at 10 µM (MCF7): 40.9%
inhibition of growth at 10 µM (OVCAR-3): 0.68%
inhibition of growth at 10 µM (BT-549): 35.4%
inhibition of growth at 10 µM (SK-MEL-28): -17.2%
inhibition of growth at 10 µM (PC-3): 8.39%
inhibition of growth at 10 µM (OVCAR-4): 14.5%
inhibition of growth at 10 µM (HCC 2998): 17%
inhibition of growth at 10 µM (HOP-92): 15.7%
inhibition of growth at 10 µM (HCT-116): 5.72%
inhibition of growth at 10 µM (NCI-H522): 12.3%
inhibition of growth at 10 µM (UACC-62): 14.5%
inhibition of growth at 10 µM (NCI-H226): 5.78%
inhibition of growth at 10 µM (IGROV-1): 7.63%
inhibition of growth at 10 µM (HT-29): -6.9%
inhibition of growth at 10 µM (K562): -0.15%
inhibition of growth at 10 µM (COLO 205): -3.48%
inhibition of growth at 10 µM (SF-268): 12.6%
inhibition of growth at 10 µM (MDA-MB-468): 13%
inhibition of growth at 10 µM (MDA-MB-231): 22.3%
inhibition of growth at 10 µM (SNB-75): -0.38%
inhibition of growth at 10 µM (HCT-15): 13.4%
inhibition of growth at 10 µM (OVCAR-8): 7.13%
inhibition of growth at 10 µM (SNB-19): 10.5%
inhibition of growth at 10 µM (NCI-H23): 16.4%
inhibition of growth at 10 µM (HL-60(TB)): 18.2%
inhibition of growth at 10 µM (DU-145): 5.52%
inhibition of growth at 10 µM (SK-MEL-5): 11.3%
inhibition of growth at 10 µM (Hs-578T): -3.42%
inhibition of growth at 10 µM (SF-295): -3.28%
